Source: patent publication US11583525B2, “Geranylgeranyltransferase I inhibitor for treatment of a PTEN defective cancer” (H. LEE MOFFITT CANCER CENTER AND RESEARCH INSTITUTE, INC., priority 2017, dated 2023)
Peptide text beside a SMILES is read from it. * marks the point of attachment. Cbz = O=C(OCc1ccccc1)*

How the values were obtained:
IP3R3 = IP3R3 levels in U87 and A549 cells (immunoblotting); assay type: cell-based, human; details: U87 and A549 cells (no or low PTEN); GGTi-2418 for 16 h
Ca2+ response = Ca2+ response measured with aequorin in COS-7 cells expressing IP3R3(Q-FR/A-AA); assay type: cell-based, African Green Monkey; details: serum re-stimulated 4 h with MG132, ATP
Experimental: FIGS. 1A, 1B, 1C, 1D, 1E, 1F, 1G, and 1H show FBXL2-mediated degradation of IP3R3 controls Ca2+ flux and sensitivity to apoptosis. […] Left, two representative traces. Right, quantification of three independent experiments. P values were calculated by one-way ANOVA and multiple-comparisons test. Error bars indicate s.e.m. 1b, 1c, and 1d, Apoptosis evaluated after treatment with H2O2 using automated nuclei count analysis of twenty randomly chosen fields following a 16 h treatment (1b), immunoblot detection of cleaved PARP and cleaved caspase-3 following a 3 h treatment (1c), and automated analysis of cells with released cytochrome c (Cyt c) from 80 randomly chosen fields following a 3 h treatment (1d). […] P values were calculated by one-way ANOVA and multiple-comparisons test. […] Left, representative traces show concentrations of cytosolic Ca2+ measured with aequorin. Right, quantification of three independent experiments. P values were calculated by one-way ANOVA and multiple-comparisons test. […] Apoptosis shown in 1h was evaluated as in 1b, except that H2O2 treatment was for 5 h. Analysis of cytochrome c release shown in 1i was evaluated as in 1d. P values were calculated by unpaired t-test. […]
FIGS. 7A, 7B, 7C, 7D, 7E, 7F, 7G, 7H, and 7I show FBXL2 controls Ca2+ mobilization and Ca2+-mediated apoptosis. […] P values were calculated by one-way ANOVA and multiple-comparisons test. […]

| Structure (SMILES) | IP3R3 levels (IP3R3) | Ca2+ response (Ca2+ response) |
| --- | --- | --- |
| Cc1nc[nH]c1CN1CCN(C(=O)N[C@@H](CC(C)C)C(=O)O)[C@@H](Cc2ccccc2)C1=O [GGTi-2418] | IP3R3 levels increased |  |
| CC(C)C[C@@H](C=O)NC(=O)[C@H](CC(C)C)NC(=O)[C@H](CC(C)C)NC(=O)OCc1ccccc1 [MG132] (Cbz-Leu-Leu-Leu-aldehyde) |  | did not produce an increase of the Ca2+ response |
